Results from ChEMBL document CHEMBL5532729, “Nonsymmetrically Substituted 1,1'-Biphenyl-Based Small Molecule Inhibitors of the PD-1/PD-L1 Interaction” (ACS Med Chem Lett, 2024).

Target: Programmed cell death protein 1/Programmed cell death 1 ligand 1 (Homo sapiens, UniProt Q9NZQ7)
Test: Inhibition of interaction of PD-1 (unknown origin) expressed in Jurkat T cells co-transfected with NFAT response element/PD-L1 (unknown origin) expressed in CHO-K1 cells by reporter bioassay
Format: cell-based

Chain of Programmed cell death protein 1/Programmed cell death 1 ligand 1 (Q15116 whole entry): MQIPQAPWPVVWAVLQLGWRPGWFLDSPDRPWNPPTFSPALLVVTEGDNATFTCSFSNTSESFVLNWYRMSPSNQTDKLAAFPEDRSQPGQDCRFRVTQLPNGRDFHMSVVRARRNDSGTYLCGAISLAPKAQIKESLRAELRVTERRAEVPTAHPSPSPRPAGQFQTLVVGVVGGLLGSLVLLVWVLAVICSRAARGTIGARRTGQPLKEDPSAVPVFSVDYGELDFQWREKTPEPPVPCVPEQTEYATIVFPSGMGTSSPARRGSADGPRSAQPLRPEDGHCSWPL
Chain of Programmed cell death protein 1/Programmed cell death 1 ligand 1 (Q9NZQ7 whole entry): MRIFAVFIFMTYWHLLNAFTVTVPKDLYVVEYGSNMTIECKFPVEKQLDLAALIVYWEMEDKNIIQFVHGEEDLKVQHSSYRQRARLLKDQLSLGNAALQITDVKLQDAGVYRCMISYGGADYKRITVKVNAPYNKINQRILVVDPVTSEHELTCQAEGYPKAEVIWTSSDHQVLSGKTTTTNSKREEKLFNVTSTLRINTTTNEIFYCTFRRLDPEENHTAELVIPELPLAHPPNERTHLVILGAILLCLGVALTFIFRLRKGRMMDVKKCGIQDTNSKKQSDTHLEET

Cc1c(NC(=O)c2ccc(CNCCO)cn2)cccc1-c1cccc(NC(=O)c2ccc(CNCCO)cn2)c1C showed an EC50 of 17 nM.
